Experiments:
[1] = test system: HepG2 tumor-bearing xenograft mice; assay: In vivo antitumor study; set-up: species or system BALB/c nude mice; conditions: 5 mg/kg i.v., days 1, 4, 7, 10
Description: HepG2 cell-bearing xenograft mice models were developed by subcutaneously injecting 1 × 10^7 cells/100 μl into the rear flanks of 5-week-old male BALB/c nude mice (Orient Ltd. Osan, South Korea). After two weeks of initial implantation, animals were randomly divided into six groups (n = 6 per group). Respective formulations were injected at a dose of 100 μg/100 μL in 750 μg carrier by tail vein four times every 3 days. Tumors were measured twice weekly using a digital caliper and the tumor volume (V) was calculated as, V = ((width)^2 x length)/2. The animals were sacrificed after four weeks of treatment and the primary tumor was excised, weighed, and subjected to further analysis.

[2] = test system: HepG2 xenograft tumor masses; assay: Histomorphometric and immunohistochemical analysis of tumor masses; assay type: in vivo, BALB/c nude mice; conditions: for Tumor cell volumes: H&E, six histological fields; for Immunolabeled cell percentages: CD31 (PECAM-1) / Immunolabeled cell percentages: Caspase-3 / Immunolabeled cell percentages: Ki-67 / Immunolabeled cell percentages: PARP: tumor mass; for Caspase-3-immunolabeled cells: tumor of treated mice
Description: Xenografted tumor masses were cut and fixed in 10% neutral buffered formalin, embedded in paraffin, serially sectioned (3–4 μm), and stained with H&E prior to histopathological examinations under a light microscope (Nikon, Tokyo, Japan). The tumor cell volumes and intact tumor cell-occupied regions (%/mm^2 of tumor mass) were calculated using a computer-based automated image analyzer (iSolution FL ver 9.1, IMT i-solution Inc., Quebec, Canada).
The apoptotic markers, caspase-3, PARP, CD31, and Ki67 were investigated immunohistochemically using purified primary antibodies and biotinylated secondary antibodies, with avidin-biotin-peroxidase complex (ABC) and a peroxidase substrate kit (Vector Labs, Burlingame, CA, USA). Briefly, endogenous peroxidase activity was blocked with methanol and 0.3% H2O2 for 30 min, and non-specific immunoglobulin binding was blocked with normal horse serum blocking solution in 10 mM citrate buffer (pH 6.0). Tissue sections were incubated with primary antisera overnight at 4°C in a humidity chamber, and then incubated with biotinylated universal secondary antibodies and ABC reagents for 1 h at room temperature. Finally, sections were reacted with the peroxidase substrate kit for 3 min at room temperature. Cells were counted as immunopositive if they had > 20% immunoreactivity to the apoptotic marker (caspase-3 or PARP). The percentage region occupied by caspase-3- and PARP-positive cells within the tumor mass (%/mm^2 of tumor mass) was measured by an automated image analyzer.

red blood cells (RBC) = assay: Hemolytic analysis; conditions: male, Sprague-Dawley, rat
Description: The experimental protocol was approved by
the Institutional Animal Ethical Committee, Yeungnam
Briefly, the rat femoral artery
was cannulated and whole blood samples were withdrawn.
centrifugation at 3500 rpm for 10 min. The degree of
Hemolytic analysis hemolysis was determined by measuring the absorbance
of the supernatant at 540 nm.
Hemolytic toxicity was determined in a male
Sprague-Dawley rat after treatment with different

SMILES | Tumor growth (in words) [1] | Tumor cell volumes [2] | Immunolabeled cell percentages: CD31 (PECAM-1) [2] | Immunolabeled cell percentages: Caspase-3 [2] | Immunolabeled cell percentages: Ki-67 [2] | Immunolabeled cell percentages: PARP [2] | Caspase-3-immunolabeled cells [2] [%] | hemolysis at 30 min, 100 µg/mL (red blood cells (RBC); isolated red blood cells (RBC) suspension) [%] | hemolysis at 30 min, 100 µg/mL (red blood cells (RBC)) [%]
O=C(CCCCCCC(=O)Nc1ccccc1)NO [VOR, Vorinostat] | slightly inhibited tumor growth | 60.51 ± 10.92 %/mm2 of tumor mass | 29.70 ± 2.52 %/mm2 of tumor mass | 26.31 ± 7.48 %/mm2 of tumor mass | 42.64 ± 4.65 %/mm2 of tumor mass | 27.64 ± 3.22 %/mm2 of tumor mass | 26.31 | ~40 | 
CC(=O)O[C@H]1C(=O)[C@@]2(C)[C@H]([C@H](OC(=O)c3ccccc3)[C@]3(O)C[C@H](OC(=O)[C@H](O)[C@@H](NC(=O)c4ccccc4)c4ccccc4)C(C)=C1C3(C)C)[C@]1(OC(C)=O)CO[C@@H]1C[C@@H]2O [PTX, Paclitaxel] | slightly inhibited tumor growth | 53.84 ± 3.18 %/mm2 of tumor mass | 30.54 ± 4.09 %/mm2 of tumor mass | 30.34 ± 5.00 %/mm2 of tumor mass | 44.90 ± 5.31 %/mm2 of tumor mass | 29.59 ± 3.04 %/mm2 of tumor mass | 30.34 |  | ~25

Source: article PMC5362455, “Molecularly targeted co-delivery of a histone deacetylase inhibitor and paclitaxel by lipid-protein hybrid nanoparticles for synergistic combinational chemotherapy” (Oncotarget, 2017)
